Values quoted from earlier work in patent publication US6369078B1, “Solenopsin derivatives and analogues as fire ant suppressants” (priority 1999, dated 2002).

Tests used:
[1] = test system: blood and tissue- and fluid-feeding parasites
[2] = as much as 6000 units over a shorter time period
fire ants = settings: stomach insecticide combined with bait

Row | Compound | units equivalent to 250 units of the whole body extracts ([1]; synthetic version against whole body extract) | elimination of blood and tissue- and fluid-feeding parasites ([1]; synthetically produced, oral) | ill effects [2] | effectiveness against fire ants (fire ants)
1 | CCCCCCCCCCC[C@H]1CCC[C@H](C)N1 (relative stereo) [Solenopsin A, trans-2-methyl 6-n-undecylpiperidine] | 1500 units | complete elimination | did not cause any ill effects | 
2 | ClC1(Cl)C2(Cl)C3(Cl)C4(Cl)C(Cl)(Cl)C5(Cl)C3(Cl)C1(Cl)C5(Cl)C24Cl (stereo not shown) [Mirex] |  |  |  | more than 95%
